For one assay, the target named is T1, hCA I (Homo sapiens, UniProt P00915).
T1 construct: we have purified CA I and II (hCA I and hCA II) from human erythrocytes; from tissue; host or cells: human erythrocytes (fresh human blood)
The assay is described as follows: hCA I inhibition, esterase assay with 4-nitrophenylacetate as substrate. The assay is classed as biochemical. The conditions noted are these: 4-nitrophenylacetate substrate, mean from at least three determinations, enzyme purified from human erythrocytes. The method, then:
(§1) Erythrocytes were purified from fresh human blood obtained from the Blood Centre of the Research Hospital at Atatürk University. The blood samples were centrifuged at 1500 rpm for 15 min and the plasma and buffy coat were removed. The red cells were isolated and washed twice with 0.9% NaCl, and hemolysed with 1.5 volumes of ice-cold water. The ghost and intact cells were removed by centrifugation at 20 000 rpm for 30 min at 4 °C. The pH of the hemolysate was adjusted to 8.7 with solid Tris[18]. Firstly, benzoyl chloride and stirred for four hours at room temperature in CH2Cl2 cellulose. After the spacer arm cellulose added as a benzyl group and finally diazotized sulfanilamide clamped to the para position of benzyl group as ligand. The hemolysate was applied to the prepared cellulose-benzyl-sulfanylamide affinity column equilibrated with 25 mM Tris-HCl/0.1 M Na2SO4 (pH 8.7). The affinity gel was washed with 25 mM Tris-HCl/22 mM Na2SO4 (pH 8.7). The human carbonic anhydrase (hCA I and hCA II) isozymes were eluted with 1 M NaCl/25 mM Na2HPO4 (pH 6.3) and 0.1 M CH3COONa/0.5 M NaClO4 (pH 5.6), respectively. All procedures were performed at 4 °C[16].
(§2) Enzyme activity was determined spectrophotometrically by following the change in absorbance at 348 nm of 4-nitrophenylacetate to 4-nitrophenylate over a period of 3 min at 25 °C[19–21]. The enzymatic reaction contained 1.4 mL 0.05 M Tris-SO4 buffer (pH 7.4), 1 mL 3 mM 4-nitrophenylacetate, 0.5 mL H2O and 0.1 mL enzyme solution, in a total volume of 3.0 mL[22]. Inhibitory effects of compounds 4–12 were compared with phenolic compounds 13–15. Different inhibitor concentrations were used and all compounds were tested in triplicate at each concentration used. Control cuvette activity was acknowledged as 100% in the absence of inhibitor. An Activity% – [Inhibitor] graph was drawn for each inhibitor[22–24]. The curve-fitting algorithm allowed to obtain the IC50 values, working at the lowest concentration of substrate of 0.15 mM, from which KI values were calculated[25]^,[26]. The catalytic activity of these enzymes was calculated from Lineweaver–Burk plots, as reported earlier, and represent the mean from at least three different determinations. The CA I and II isoenzymes used here were purified from human blood as described earlier.

For the next assay, the target named is T2, hCA II (Homo sapiens, UniProt P00918).
T2 construct: we have purified CA I and II (hCA I and hCA II) from human erythrocytes; from tissue; host or cells: human erythrocytes (fresh human blood)
Description: hCA II inhibition, esterase assay with 4-nitrophenylacetate as substrate. The assay is classed as biochemical. The conditions noted are these: 4-nitrophenylacetate substrate, mean from at least three determinations, enzyme purified from human erythrocytes. As to the method: as §1, §2

As a reminder, the Ki is a measure of affinity in units of concentration, obtained from inhibition or displacement. The low end stands for higher affinity, the high end for lower affinity.

T1 sequence (P00915 whole entry): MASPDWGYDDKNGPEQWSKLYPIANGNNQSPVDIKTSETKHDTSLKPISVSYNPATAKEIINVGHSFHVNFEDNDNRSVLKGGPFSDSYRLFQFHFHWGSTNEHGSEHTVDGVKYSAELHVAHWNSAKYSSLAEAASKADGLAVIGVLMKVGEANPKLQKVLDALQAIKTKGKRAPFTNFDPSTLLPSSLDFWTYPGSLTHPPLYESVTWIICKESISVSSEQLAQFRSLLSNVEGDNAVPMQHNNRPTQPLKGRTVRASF

On to `Cn1c(N)c(N)c(=O)n(C)c1=O` [5,6-Diamino 1,3-Dimethyluracil (12), 5,6-Diamino 1,3-Dimethyluracil], for which the inhibition constant Ki was 104 nM at hCA I and 236 nM at hCA II.

Consider `Cn1c(N)cc(=O)n(C)c1=O` [6-Amino 1,3-Dimethyluracil (11), 6-Amino 1,3-Dimethyluracil], for which the Ki on hCA I worked out at 85 nM; at hCA II, 172 nM.

Regarding `O=C(O)c1c[nH]c(=O)[nH]c1=O` [Isoorotic acid (10), isoorotic acid], the Ki came to 459 nM on hCA I and 1430 nM at hCA II.

Turning to `O=C(O)c1cc(=O)[nH]c(=O)[nH]1` [Orotic acid (9), Orotic acid], the Ki on hCA I was 732 nM; on hCA II, 1680 nM.

For the origin of these results see PMC6009904, “Carbonic anhydrase inhibitory properties of some uracil derivatives” (Journal of Enzyme Inhibition and Medicinal Chemistry, 2017).
